Laboratory results from PubChem BioAssay AID248 (DTP/NCI, 2004).
Several values for one entry are separate records, joined by “and”; a condition that tells them apart may be missing. Equal values may be shown once. Inconclusive results and toxic doses are left out. Rule as the data show it: active = T/C of 150% or more; inactive = T/C below 125%.

Test system: L1210 leukemia ip in BDF1 mice, survival T/C
Assay: NCI In Vivo Anticancer Drug Screen. Data for tumor model L1210 Leukemia (intraperitoneal) in B6D2F1 (BDF1) mice
Details: endpoint: mean survival time, higher = longer survival
Method in brief: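 Antitumor effect is assessed in tumor-bearing animals. Survival in the compound arm is compared with a vehicle-dosed control arm and expressed as their quotient.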

[1] = dose: 100.0 mg/kg/injection, schedule: Q01DX001 (ip), vehicle: carboxymethylcellulose (CMC)
[2] = dose: 100.0 mg/kg/injection, schedule: Q01DX009 (ip), vehicle: saline sonified
[3] = dose: 300.0 mg/kg/injection, schedule: Q01DX001 (ip), vehicle: carboxymethylcellulose (CMC)
[4] = dose: 400.0 mg/kg/injection, schedule: Q01DX001 (ip), vehicle: carboxymethylcellulose (CMC)
[5] = dose: 400.0 mg/kg/injection, schedule: Q01DX009 (ip), vehicle: saline sonified

Measured: T/C

NC(=O)SCC(=O)Nc1ccc2ncccc2c1
inactive: dose: 50.0 mg/kg/injection, schedule: Q01DX001 (ip), vehicle: carboxymethylcellulose (CMC) 97 % of control | dose: 88.0 mg/kg/injection, schedule: Q01DX001 (ip), vehicle: carboxymethylcellulose (CMC) 95 % of control and 112 % of control | [1] 94 % of control | [2] 98 % of control | dose: 100.0 mg/kg/injection, schedule: Q04DX003 (ip), vehicle: saline 93 % of control | dose: 134.0 mg/kg/injection, schedule: Q01DX001 (ip), vehicle: carboxymethylcellulose (CMC) 95 % of control and 105 % of control | dose: 200.0 mg/kg/injection, schedule: Q01DX009 (ip), vehicle: saline sonified 90 % of control | dose: 200.0 mg/kg/injection, schedule: Q04DX003 (ip), vehicle: saline 109 % of control | [3] 100 % of control and 87 % of control | [4] 100 % of control | [5] 101 % of control | dose: 400.0 mg/kg/injection, schedule: Q04DX003 (ip), vehicle: saline 96 % of control

O=S(=O)(Nc1ccccc1)c1ccc(C2CC3(Cl)C(Cl)=C(Cl)C2(Cl)C3(Cl)Cl)cc1 (configuration not stated)
inactive: dose: 29.0 mg/kg/injection, schedule: Q01DX015 (ip), vehicle: carboxymethylcellulose (CMC) 97 % of control | dose: 44.0 mg/kg/injection, schedule: Q01DX015 (ip), vehicle: carboxymethylcellulose (CMC) 104 % of control | dose: 66.0 mg/kg/injection, schedule: Q01DX015 (ip), vehicle: carboxymethylcellulose (CMC) 95 % of control | dose: 88.8 mg/kg/injection, schedule: Q01DX001 (ip), vehicle: carboxymethylcellulose (CMC) 96 % of control and 100 % of control | [1] 110 % of control | [2] 86 % of control | dose: 100.0 mg/kg/injection, schedule: Q01DX015 (ip), vehicle: carboxymethylcellulose (CMC) 92 % of control | dose: 100.0 mg/kg/injection, schedule: Q04DX003 (ip), vehicle: Klucel (hydroxypropylcellulose) (HPC) 100 % of control | dose: 133.0 mg/kg/injection, schedule: Q01DX001 (ip), vehicle: carboxymethylcellulose (CMC) 107 % of control | dose: 200.0 mg/kg/injection, schedule: Q01DX001 (ip), vehicle: carboxymethylcellulose (CMC) 96 % of control and 100 % of control | dose: 200.0 mg/kg/injection, schedule: Q01DX015 (ip), vehicle: carboxymethylcellulose (CMC) 93 % of control | dose: 200.0 mg/kg/injection, schedule: Q04DX003 (ip), vehicle: Klucel (hydroxypropylcellulose) (HPC) 97 % of control | [3] 100 % of control and 109 % of control | [4] 105 % of control | [5] 98 % of control | dose: 400.0 mg/kg/injection, schedule: Q01DX015 (ip), vehicle: carboxymethylcellulose (CMC) 89 % of control | dose: 400.0 mg/kg/injection, schedule: Q04DX003 (ip), vehicle: Klucel (hydroxypropylcellulose) (HPC) 92 % of control

NC(CSS(=O)(=O)O)=NCCc1ccccc1
inactive: dose: 3.13 mg/kg/injection, schedule: Q04DX002 (ip), vehicle: Klucel (hydroxypropylcellulose) (HPC) 103 % of control | dose: 6.25 mg/kg/injection, schedule: Q04DX002 (ip), vehicle: Klucel (hydroxypropylcellulose) (HPC) 100 % of control | dose: 12.5 mg/kg/injection, schedule: Q04DX002 (ip), vehicle: Klucel (hydroxypropylcellulose) (HPC) 100 % of control
